Assay results taken from article PMC11696576, “Next generation thiazolyl ketone inhibitors of cytosolic phospholipase A2 α for targeted cancer therapy” (Nature Communications, 2025).
Several values for one entry are separate records, joined by “and”; a condition that tells them apart may be missing. Equal entries are not always repeated. Where two headings read alike, the source gives them in different places. Marks after values point to notes of the source that are not given here.

Assays:
secreted GV sPLA2 = target: T1, secreted GV sPLA2 (Homo sapiens, UniProt P39877); assay: radioactivity-based mixed micelle assay, GV sPLA2; type: biochemical
T1 sequence (P39877 21-138): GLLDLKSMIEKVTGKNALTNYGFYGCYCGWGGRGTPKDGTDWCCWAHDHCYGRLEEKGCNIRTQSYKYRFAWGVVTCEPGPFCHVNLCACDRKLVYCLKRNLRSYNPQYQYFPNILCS
Experimental: All synthesized thiazolyl ketones were tested for their in vitro inhibitory activity on recombinant human cPLA2α and selectivity over human calcium-independent GVIA iPLA2 and secreted GV sPLA2 using our previously described group-specific radioactivity-based mixed micelle assays. The inhibition results are presented either as per cent inhibition or as XI(50) values in Table 1. […] The XI(50) is defined as the mole fraction of the inhibitor in the total substrate interface required to inhibit the enzyme activity by 50%. For comparison purposes, previously published data for the inhibitor GK470[19] are included. […] Inhibitors were initially screened at 0.091 mol fraction (5 μL of 5 mM inhibitor in DMSO) in substrate (495 μL) in technical triplicates. […] The XI(50) value and stdev values reported are for the entire curve. This analysis was performed in GraphPad Prism v6.

[1] = stability in human plasma (LC-MS/MS); type: in vitro ADME; conditions: for Stability in human plasma 4 h: % of the compound remaining after 4 h; for plasma stability 4h (%) / plasma stability 20h (%) / plasma stability 24h39min (%) / plasma stability 25h (%): individual sample, human plasma
Experimental: The stability of the analogs in human plasma was studied over approximately 24 h by LC-MS/MS and the results at 4 h and the final timepoint (20–25 h) are included in Table 1.
The metabolic stability of the compounds was determined through in vitro stability assays in human plasma. Solutions of compounds in DMSO (20 mM) were diluted to 5 μg/mL in 50% methanol for infusion into the MS/MS system and spiking of calibration standards and control samples. For the MS detection, positive ionization in ESI mode was used. Good sensitivity, retention and peak shaped were achieved using a gradient with 5 mM ammonium carbamate in water and ammonium carbamate in 90% acetonitrile on a reversed phase column (ACE3AQ). Calibration standards were spiked in a calibration range of 0.5–100 ng/ml. Control samples were spiked at, low, medium, and high concentration levels. The spiked plasma samples were prepared by protein precipitation using acetonitrile containing appropriate internal standard (IS). […] Samples were prepared for analysis by taking 50 μL of plasma sample and adding 100 μL of IS working solution in acetonitrile followed by vortexing at 2500 rpm (Multi-tube vortexer DVX-2500, Henry Troemner LLC, USA) for 2 min. The samples were centrifuged at 5300 rpm (Heraeus Megafuge 1.0 Heraeus, Germany) for 3 min and the supernatant transferred to the autosampler. Recovery was determined by comparing the prepared matrix samples (protein precipitation) with a direct sample (analytes spikes in 67% acetonitrile = injection solution) such that the recovery of the sample preparation and the matrix effects were determined together. Two or three samples were each measured in technical triplicates to give the final % recovery.

SW982 synoviocytes = assay: cellular arachidonic acid (AA) release assay, IL-1β stimulated; type: cell-based, human; conditions: for EC50 / IC50: SW982; for IC50: concentration in µM, read-out: logEC50 best-fit value, AA release (converted); for inhibition at 5 µM: SW982, 5 µM
Source text: To test the inhibitory activity of the compounds in cells, we measured their effect on the release of AA from synoviocytes stimulated with IL-1β (Table 2). […] Combined with favorable selectivity and stability it was thus chosen for further evaluation. We looked specifically at how it modulated eicosanoid levels in response to stimulation both in whole blood and in isolated peripheral blood mononuclear cells (PBMCs) and checked for off-target effects on AA metabolism in whole blood by also measuring the effect of GK420 on eicosanoid release in the presence of exogenous free AA.
The human synovial sarcoma cell line SW982 (ATCC, London, UK) was used to measure AA release. The cells were maintained in Dulbecco’s Modified Eagle Medium (DMEM) supplemented with 10% FBS, 0.1 mg/mL gentamicin, and 0.3 mg/mL L-glutamine at 37 °C with 10% CO2, and experiments were performed at 3 days post-confluence. To measure AA release, the cells were labeled overnight with ^3H-AA (0.4 μCi/mL) in serum-free DMEM and then washed twice with PBS containing fBSA (2 mg/mL) to remove unincorporated radioactivity. The inhibitors, or DMSO vehicle control, were subsequently added to the cells for 1 hour prior to stimulation with 10 ng/mL IL-1β for 4 h. Supernatants were collected and centrifuged at 300 × g for 5 min to clear them of detached cells and adherent cells were dissolved in 1 N NaOH. The ^3H-AA was assessed by liquid scintillation counting (LS 6500 Multi-Purpose Scintillation Counter, Beckman Coulter, Inc., USA) and the results are given as the inhibition of released ^3H-AA in the supernatants relative to total ^3H-AA incorporated into the cells, as described. EC50 values were calculated by fitting the % inhibition data to a three-parameter dose-response curve in GraphPad prism v10.4.0. Experiments were performed in technical triplicates and repeated at least three times.

[2] = 0.091 mole fraction, read-out: GV sPLA2 % Inhib
[3] = average of triplicates, read-out: sPLA2 % inhibition at 0.091 mole fraction, average
[4] = individual technical replicate, read-out: sPLA2 % inhibition at 0.091 mole fraction
[5] = % of the compound remaining after 20 h
[6] = 0.2 µM, individual biological replicate
[7] = 1 µM, individual biological replicate
[8] = 5 µM, individual biological replicate
[9] = Homo sapiens, SW982, 4 h, 1 µM inhibitor, IL-1β 4 h, mean ± stdev, read-out: AA release % Inhib
[10] = Homo sapiens, IL-1β 4 h, 0.2, 1 or 5 µM inhibitor, read-out: AA release EC50 µM (95% CI)
[11] = Homo sapiens, [Agonist] vs. Response (three parameters)
[12] = Homo sapiens, [Agonist] vs. Response (three parameters), read-out: EC50 best-fit value, AA release
[13] = % of the compound remaining after 24 h 39 min (*)
[14] = Homo sapiens, SW982, 1 µM, individual biological replicate, read-out: % inhibition of stimulated AA release
[15] = Homo sapiens, individual biological replicate

| inhibition at 0.091 mole fraction (secreted GV sPLA2; [2]) [%] | inhibition at 0.091 mole fraction (secreted GV sPLA2; [3]) [%] | inhibition at 0.091 mole fraction (secreted GV sPLA2; [4]) [%] | Stability in human plasma 4 h [1] [%] | Stability in human plasma 20+ h [1, 5] [%] | plasma stability 4h (%) [1] | plasma stability 20h (%) [1] | EC50 (SW982 synoviocytes; [10]) [µM] | IC50 (SW982 synoviocytes; [11]) [µM] | EC50 (SW982 synoviocytes; [12]) [µM] | Structure (SMILES) | % inhibition of stimulated AA release (SW982 synoviocytes; [6]) | % inhibition of stimulated AA release (SW982 synoviocytes; [7]) | % inhibition of stimulated AA release (SW982 synoviocytes; [8]) | inhibition at 1 µM (SW982 synoviocytes; [9]) [%] | inhibition at 1 µM (SW982 synoviocytes; [14]) [%] | inhibition at 5 µM (SW982 synoviocytes; [15]) [%] | also measured |
| --- | --- | --- | --- | --- | --- | --- | --- | --- | --- | --- | --- | --- | --- | --- | --- | --- | --- |
| 36 | 36.4 | 28.3 | 35.9 | 1.65 | 36.5% and 35.3% | 2.1% and 1.2% | 9.34 | 9.34 | 9.34 | COC(=O)c1csc(C(=O)C(C)Oc2ccc(Oc3ccccc3)cc2)n1 (centres unmarked) [GK428] | 5.86% and -31.46% and 2.89% and 15.93% | 17.3% and 4.11% and 8.14% and 18.84% | 51.1% and 33.6% and 14.73% and 37.63% | 12 ± 7 | – | – | – |
| 31 | 30.8 | 34.1 | 21.3 | – | 20.1% and 22.4% | – | 0.18 | 0.184 | 0.184 | COC(=O)c1csc(C(=O)COc2ccc(Oc3ccc(F)cc3)cc2)n1 [GK440] | 52.34% and 48.93% and 32.32% and 54.12% | 77.97% and 89.75% and 95.95% | 121.05% and 107.56% and 129.55% and 117.95% | 88 ± 8 | 90 | – | sPLA2 % inhibition at 0.091 mole fraction (secreted GV sPLA2; individual technical replicate): 29.2%; Stability in human plasma 20+ h [1, 13]: 0.9* %; plasma stability 24h39min (%) [1]: 0.5% and 1.3% |
| 44 | 43.6 | 39.7 | 61.3 | 8.05 | 59% and 63.5% | 0% and 16.1% | 0.67 | 0.671 | 0.671 | CCCCCCSc1ccc(OCC(=O)c2nc(C(=O)OC)cs2)cc1 [GK427] | 24.46% and 29.82% and 29.25% | 49.86% and 62.69% | 90.15% and 92.25% and 90.43% | 56 ± 5 | 55.8 | 84 | inhibition at 0.2 µM (SW982 synoviocytes; Homo sapiens, SW982, 0.2 µM, individual biological replicate): 26.4% |
| – | – | – | 60.6 | – | 58.2% and 63% and 60.5% | – | 0.38 | 0.385 | 0.385 | CCCCCCCCc1ccc(OCC(=O)c2nc(C(=O)OC)cs2)cc1 [GK470] | 11.2% and 24.55% and 57.46% and 50.18% | 71.51% and 64.93% and 67.46% | 105% and 107.21% and 94.17% | 67 ± 4 | 62.7 | 110 | plasma stability 25h (%) [1]: 10.5% and 10.6% |
| 29 | 29.2 | 33.4 | 82 | 52.7 | 82.6% and 81.4% | 53.1% and 52.3% | 0.5 | 0.495 | 0.495 | CCCCCCOc1ccc(SCC(=O)c2nc(C(=O)OC)cs2)cc1 [GK419] | 23.74% and 36.06% and 29.89% and 8.79% | 51.4% and 93.19% and 85.38% and 54.33% | 98.65% and 99.61% and 98.35% and 63.6% | 71 ± 21 | – | – | – |
| 53 | 53.3 | 50.7 | 59.9 | – | 55.1% and 64.7% | – | 0.32 | 0.325 | 0.325 | CCCCCCCOc1ccc(OC(C)C(=O)c2nc(C(=O)OC)cs2)cc1 (centres unmarked) [GK439] | 39.77% and 13.25% and 29.88% and 48.17% | 95.13% and 73.24% and 73.33% and 76.5% | 98.88% and 99.59% and 96.75% | 80 ± 10 | – | 116 | Stability in human plasma 20+ h [1, 13]: 12.8* %; plasma stability 24h39min (%) [1]: 10.7% and 14.8% |
| 32 | – | 27.6 | 21.5 | – | 32.3% and 10.6% | – | 0.79 | 0.793 | 0.793 | COC(=O)c1csc(C(=O)COc2ccc(Oc3ccccc3)cc2)n1 [GK403] | 11.19% and -0.79% and 22.56% and 22.92% | 71.06% and 44.35% and 48.83% and 61.77% | 83.19% and 96.79% and 91.92% | 57 ± 12 | – | 101 | – |
| 50 | 49.5 | 50.4 | 79.7 | – | 79.3% and 79.5% and 80.3% | – | 6.7 | 6.7 | 6.7 | CCCCCCCCc1ccc(OC(C)C(=O)c2nc(C(=O)OC)cs2)cc1 (centres unmarked) [GK402] | 6.56% and 7.69% and 18.19% | 17.63% and 31.62% | 31.01% and 44.57% | 23 ± 8 | 18.5 | 36.7 | Stability in human plasma 20+ h ([1]; % of the compound remaining after 25 h (¤)): 47.3¤ %; plasma stability 25h (%) [1]: 47% and 46% and 48.8% |

| Structure (SMILES) | inhibition at 0.091 mole fraction (secreted GV sPLA2; [2]) [%] | inhibition at 0.091 mole fraction (secreted GV sPLA2; [3]) [%] | inhibition at 0.091 mole fraction (secreted GV sPLA2; [4]) [%] | Stability in human plasma 4 h [1] [%] | Stability in human plasma 20+ h [1, 5] [%] | plasma stability 4h (%) [1] | plasma stability 20h (%) [1] | EC50 (SW982 synoviocytes; [10]) [µM] | IC50 (SW982 synoviocytes; [11]) [µM] | EC50 (SW982 synoviocytes; [12]) [µM] | % inhibition of stimulated AA release (SW982 synoviocytes; [6]) | % inhibition of stimulated AA release (SW982 synoviocytes; [7]) | % inhibition of stimulated AA release (SW982 synoviocytes; [8]) | inhibition at 1 µM (SW982 synoviocytes; [9]) [%] | inhibition at 1 µM (SW982 synoviocytes; [14]) [%] | inhibition at 5 µM (SW982 synoviocytes; [15]) [%] | also measured |
| --- | --- | --- | --- | --- | --- | --- | --- | --- | --- | --- | --- | --- | --- | --- | --- | --- | --- |
| CCCCCCCOc1ccc(OCC(=O)c2nc(C(=O)OC)cs2)cc1 [GK420] | 46 | 46.4 | 48.2 | 63.3 | 18.05 | 64.7% and 61.9% | 19.1% and 17% | 0.09 | 0.0942 | 0.0943 | 55.97% and 44.95% and 68.85% and 89.01% | 102.49% and 78.04% and 96.65% and 110.97% | 103.28% and 116.15% and 112.68% | 97 ± 14 | – | 119 | – |
